Here are results for two molecules from patent US4493830A, “Method for the treatment of idiopathic headache attacks, in particular migraine and cluster headache” (Istituto Farmacologico Serono of Rome, priority 1983, dated 1985).

Counter-ions that a name gives are not always drawn.

This series deals with cluster headache attacks. Nature of the series: Double-blind randomized trial of treatment of cluster headache attacks in hospitalized patients. It counts as in vivo. Here is the method: Six consenting patients, suffering from cluster headache, were hospitalized. Two presented with a chronic state (more than one year) while the other four were in an attack stage at the moment of entering hospital. The patients received no other pharmaceuticals during the four days prior to commencing the study.
In each patient attacks lasted an average of 1-2 hours.
At the beginning of the attack, 10 minutes after the onset of pain, the patients received one of the following treatments:
500 mcg Somatostatin in 50 ml physiological solution, i.v.;
1 ml physiological solution i.m.;
50 ml physiological solution i.v.;
250 mcg Ergotamine Tartrate in 1 ml physiological solution i.m.
Duration of venous infusion was 20 minutes (50 drops per min.), and was started simultaneously with the i.m. injection. Treatments and patients were randomized and the trial was carried out in double blind.
In total, 9 attacks were treated for each patient, who received treatments (a) (b) or (c) 3 times; in this way, each treatment was used 18 times.
Pain intensity was ascertained every 10 minutes on a visible scale. Values were recorded on the ordinate against the time which was recorded on the abscissa.
3 parameters were used for statistical assessment; maximum intensity of pain expressed in arbitrary units; duration of pain expressed in minutes; area below the curve expressed in arbitrary units. During infusion with Somatostatin, blood pressure and pulse rates were recorded every 10 minutes for an hour.

[1] abbreviates: versus physiological solution, Somatostatin 500 mcg i.v. infusion or Ergotamine Tartrate 250 mcg i.m.

In the case of `CN1C[C@H](C(=O)N[C@]2(C)O[C@@]3(O)[C@@H]4CCCN4C(=O)[C@H](Cc4ccccc4)N3C2=O)C=C2c3cccc4[nH]cc(c34)C[C@H]21` [Ergotamine, Ergotamine Tartrate], the “Reduction of pain duration as compared with placebo” value (Somatostatin 500 mcg i.v. infusion or Ergotamine Tartrate 250 mcg i.m.) is listed as 41%. This molecule displayed a Maximum pain intensity (Somatostatin 500 mcg i.v. infusion or Ergotamine Tartrate 250 mcg i.m., physiological solution 7.1±0.3) of 6.2±0.3 arbitrary units. For the same molecule, where the note is “Somatostatin 500 mcg i.v. infusion or Ergotamine Tartrate 250 mcg i.m., physiological solution 43.8±6.2”, the “Area under the pain curve” value was 23.3±3.1 arbitrary units. The Duration of pain (cluster headache patients, Somatostatin 500 mcg i.v. infusion over 20 min or Ergotamine Tartrate 250 mcg i.m., 18 attacks per treatment, physiological solution 93±10) was found to be 55 ± 8 min. Also, under setting [1], the “Reduction of maximum pain intensity” value is 13% and the “Reduction of the pain area” value is 47%.

Regarding `C[C@H](N)C(=O)NCC(=O)N[C@H]1CSSC[C@@H](C(=O)O)NC(=O)[C@H](CO)NC(=O)[C@H]([C@@H](C)O)NC(=O)[C@H](Cc2ccccc2)NC(=O)[C@H]([C@@H](C)O)NC(=O)[C@H](CCCCN)NC(=O)[C@H](Cc2c[nH]c3ccccc23)NC(=O)[C@H](Cc2ccccc2)NC(=O)[C@H](Cc2ccccc2)NC(=O)[C@H](CC(N)=O)NC(=O)[C@H](CCCCN)NC1=O` [Somatostatin], the “Variations in blood pressure or pulse rates during infusion” value (500 mcg i.v. infusion, recorded every 10 minutes for an hour) is recorded as “nor were there significant variations”. In addition, for the setting “human, in vivo”, the “Incidence of side-effects as compared with Ergotamine” value is listed as “minor incidence of side-effects”.
